According to article PMC7584160 (Environmental Health Perspectives, 2020):
Read-outs that look alike come from different tables or passages of the source.

Experiments:
GH3 cells [1] = test: GH3 cell proliferation assay in the presence of 10 nM T3; assay type: cell-based, rat
human TRβ-LBD = target: T1, human TRβ-LBD (Homo sapiens, UniProt P10828); test: TRβ-LBD fluorescence polarization competitive binding assay (F-T3 probe)
T1 construct: purchased Zhongding Biotechnology Co. Ltd
T1 sequence (P10828 217-461 limits assumed): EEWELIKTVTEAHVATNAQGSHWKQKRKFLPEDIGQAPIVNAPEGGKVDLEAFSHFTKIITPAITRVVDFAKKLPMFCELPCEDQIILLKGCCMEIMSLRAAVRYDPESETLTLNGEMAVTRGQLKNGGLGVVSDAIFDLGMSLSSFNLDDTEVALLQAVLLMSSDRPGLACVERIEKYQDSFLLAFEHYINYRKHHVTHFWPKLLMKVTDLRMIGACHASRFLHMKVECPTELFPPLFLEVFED

human TRα-LBD = target: T2, human TRα-LBD (Homo sapiens, UniProt P10827); test: TRα-LBD fluorescence polarization competitive binding assay (F-T3 probe)
T2 sequence (P10827 163-410 isoform P10827-2 limits assumed): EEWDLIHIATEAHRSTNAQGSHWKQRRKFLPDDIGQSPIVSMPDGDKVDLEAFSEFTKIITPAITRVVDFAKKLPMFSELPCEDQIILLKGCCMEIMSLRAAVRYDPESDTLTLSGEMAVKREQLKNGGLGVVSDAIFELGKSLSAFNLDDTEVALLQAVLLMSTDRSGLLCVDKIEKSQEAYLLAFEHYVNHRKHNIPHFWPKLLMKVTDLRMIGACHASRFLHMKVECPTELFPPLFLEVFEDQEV

GH3 cells [2] = test: GH3 cell proliferation assay (individual exposure, with or without amiodarone); assay type: cell-based, rat; conditions: 96 h; for LOEC for GH3 cell proliferation: individual exposure
[3] = target: T3, human thyroxine-binding globulin (TBG) (Homo sapiens, UniProt P05543); test: TBG fluorescence polarization competitive binding assay (F-T4 probe); conditions: 100 nM TBG, 50 nM F-T4; up to 50 μM competitor
T3 construct: purchased Calbiochem 612075
T3 sequence (P05543 21-415): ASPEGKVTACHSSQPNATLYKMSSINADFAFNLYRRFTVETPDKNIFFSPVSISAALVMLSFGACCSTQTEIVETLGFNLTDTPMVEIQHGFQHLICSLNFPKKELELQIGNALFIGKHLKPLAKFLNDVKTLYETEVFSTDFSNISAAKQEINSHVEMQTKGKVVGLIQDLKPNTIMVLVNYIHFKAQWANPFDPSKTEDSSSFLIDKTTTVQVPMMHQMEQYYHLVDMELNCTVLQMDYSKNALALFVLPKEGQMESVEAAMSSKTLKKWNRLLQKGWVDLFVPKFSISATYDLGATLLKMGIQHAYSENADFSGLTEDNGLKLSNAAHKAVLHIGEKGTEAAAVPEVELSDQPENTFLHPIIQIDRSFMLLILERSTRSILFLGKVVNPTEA

[4] = target: T4, human transthyretin (TTR) (Homo sapiens, UniProt P02766); test: TTR fluorescence polarization competitive binding assay (F-T4 probe); conditions: for TTR RBP (relative binding potency): IC50 of TBBPA divided by that of competitor, TBBPA set as 1.00
T4 construct: purchased Calbiochem 529577

[5] = IC20 of TBBPA divided by that of competitor, TBBPA set as 1.00
[6] = […] nM TRβ-LBD, 50 nM F-T3, pH 7.5, 25°C, linear interpolation, read-out: TRβ-LBD IC20
[7] = […] nM TRα-LBD, 50 nM F-T3, pH 7.5, 25°C, linear interpolation, read-out: TRα-LBD IC20
[8] = […] nM TTR, 50 nM F-T4, pH 7.5, 25°C, linear interpolation, read-out: TTR IC50 (converted)
[9] = co-exposed with 10 nM T3, mass concentration

`C=CCOc1c(Br)cc(C(C)(C)c2cc(Br)c(OCC=C)c(Br)c2)cc1Br` [TBBPA-BAE, TBBPA-bis(allyl ether)] was tested, and the “Inhibition of T3-induced GH3 cell proliferation effect” value (GH3 cells [1]; co-exposed with 10 nM T3) was roughly 60%.

In the case of `CC(C)(c1cc(Br)c(O)c(Br)c1)c1cc(Br)c(O)c(Br)c1` [TBBPA, Tetrabromobisphenol A, reference compound], the “TRβ-LBD RBP” value (human TRβ-LBD; [5]) is reported as 1.00, the IC20 (human TRβ-LBD; [6]) is reported as 5000 nM and the “TRα-LBD RBP” value (human TRα-LBD; [5]) is reported as 1.00. The IC20 (human TRα-LBD; [7]) was 1500 nM, the “LOEC for enhancing T3-induced GH3 cell proliferation” value (GH3 cells [1]; co-exposed with 10 nM T3) was 2.5 µM and the “Enhancement of T3-induced GH3 cell proliferation effect” value (GH3 cells [1]; co-exposed with 10 nM T3, 96 h) was 20%. For the same molecule, the “Highest activity of GH3 proliferation induction” value (GH3 cells [2]; individual exposure 0.3-10 μM, relative to 0.1% DMSO control) was 137%, the “LOEC for GH3 cell proliferation” value (GH3 cells [2]) was 2.5 µM and the “Binding to TBG” value [3] was “did not bind”.

`CC(C)(c1cc(Br)c(O)c(Br)c1)c1cc(Br)c(OCC2CO2)c(Br)c1` (centres unmarked) [TBBPA-MGE, TBBPA-mono(glycidyl ether)] was tested, and the “TTR RBP (relative binding potency)” value [4] was 0.40, the IC50 [4, 8] was 500 nM and the “TTR-binding potency, fold lower than natural ligand T4” value ([4]; compared with T4) was “approximately 2 fold”. For the same molecule, the “TRβ-LBD RBP” value (human TRβ-LBD) was 0.83, the IC20 (human TRβ-LBD; [6]) was 6000 nM and the “TRα-LBD RBP” value (human TRα-LBD) was 0.18. For the same molecule, the IC20 (human TRα-LBD; [7]) was 8000 nM, the “LOEC for enhancing T3-induced GH3 cell proliferation” value (GH3 cells [1]; co-exposed with 10 nM T3) was 1.2 µM and the “LOEC for enhancing T3-induced GH3 cell proliferation” value (GH3 cells [1]; [9]) was 0.7 mg/L. For the same molecule, the “LOEC for GH3 cell proliferation” value (GH3 cells [2]) was 2.5 µM and the “LOEC for GH3 cell proliferation” value (GH3 cells [2]; mass concentration) was 1.4 mg/L.

In the case of `CC(C)(c1cc(Br)c(OCC2CO2)c(Br)c1)c1cc(Br)c(OCC2CO2)c(Br)c1` (centres unmarked) [TBBPA-BGE, TBBPA-bis(glycidyl ether)], the “TRβ-LBD RBP” value (human TRβ-LBD; [5]) is reported as 0.20, the IC20 (human TRβ-LBD; [6]) is reported as 25000 nM and the “Inhibition of T3-induced GH3 cell proliferation effect” value (GH3 cells [1]; co-exposed with 10 nM T3) is reported as “approximately 80%”.

For `C=CCOc1c(Br)cc(C(C)(C)c2cc(Br)c(O)c(Br)c2)cc1Br` [TBBPA-MAE, TBBPA-mono(allyl ether)], the “TTR RBP (relative binding potency)” value [4] was 2.00, the IC50 [4, 8] was 100 nM and the “TTR-binding potency, fold higher than T4” value ([4]; compared with T4) was 2 fold. For the same molecule, the “TTR-binding potency, fold greater than TBBPA” value ([4]; compared with TBBPA) was 2 fold, the IC50 ([4]; mass concentration given beside the μM value, read-out: TTR IC50 (converted)) was 97.6 nM and the “TRβ-LBD RBP” value (human TRβ-LBD; [5]) was 1.25. The IC20 (human TRβ-LBD; [6]) was 4000 nM, the IC20 (human TRβ-LBD; mass concentration given beside the μM value, read-out: TRβ-LBD IC20) was 2.3 µg/mL and the “TRα-LBD RBP” value (human TRα-LBD; [5]) was 0.25. The IC20 (human TRα-LBD; [7]) was 6000 nM and the IC20 (human TRα-LBD; mass concentration given beside the μM value, read-out: TRα-LBD IC20) was 3.4 µg/mL.

In the case of `CC(C)(c1cc(Br)c(O)c(Br)c1)c1cc(Br)c(OCC(Br)CBr)c(Br)c1` (centres unmarked) [TBBPA-MDBPE, TBBPA-mono(2,3-dibromopropyl ether)], the “TTR RBP (relative binding potency)” value [4] is reported as 0.20, the IC50 ([4]; TTR IC50, […] nM TTR, 50 nM F-T4, pH 7.5, 25°C, linear interpolation) is reported as 1000 nM and the IC50 ([4]; TTR IC50, mass concentration given beside the μM value) is reported as 990 nM. For the same molecule, the “TTR-binding potency, fold lower than natural ligand T4” value ([4]; compared with T4) was roughly 5 fold, the “TRβ-LBD RBP” value (human TRβ-LBD; [5]) was 0.25 and the IC20 (human TRβ-LBD; pH 7.5, read-out: TRβ-LBD IC20) was 20000 nM. The IC20 (human TRβ-LBD; read-out: TRβ-LBD IC20) was 14.7 µg/mL, the “TRα-LBD RBP” value (human TRα-LBD; [5]) was 0.03 and the IC20 (human TRα-LBD; pH 7.5, read-out: TRα-LBD IC20) was 50000 nM. For the same molecule, the IC20 (human TRα-LBD; read-out: TRα-LBD IC20) was 36.8 µg/mL, the “LOEC for enhancing T3-induced GH3 cell proliferation” value (GH3 cells [1]; co-exposed with 10 nM T3) was 0.3 µM and the “LOEC for enhancing T3-induced GH3 cell proliferation” value (GH3 cells [1]; [9]) was 0.22 mg/L. For the same molecule, the “LOEC for GH3 cell proliferation” value (GH3 cells [2]) was 0.3 µM and the “LOEC for GH3 cell proliferation” value (GH3 cells [2]; mass concentration) was 0.22 mg/L.

`CC(C)(c1cc(Br)c(OCC(Br)CBr)c(Br)c1)c1cc(Br)c(OCC(Br)CBr)c(Br)c1` (centres unmarked) [TBBPA-BDBPE, TBBPA-bis(2,3-dibromopropyl ether)] was tested, and the “Effect on T3-induced GH3 cell proliferation” value (GH3 cells [1]; co-exposed with 10 nM T3) was “no effect”.
